What follows are compounds tested against T1, AhR (Homo sapiens, UniProt P35869) (assay: AhR transcription reporter assay (HT29-Lucia AhR cells)). Conditions: 1 µM, 24 h, relative to DMSO.
T1 construct: This cell line stably expresses the secreted Lucia luciferase reporter gene under the control of a minimal promoter; host or cells: HT29-Lucia AhR reporter cells
T1 sequence (P35869 11-848): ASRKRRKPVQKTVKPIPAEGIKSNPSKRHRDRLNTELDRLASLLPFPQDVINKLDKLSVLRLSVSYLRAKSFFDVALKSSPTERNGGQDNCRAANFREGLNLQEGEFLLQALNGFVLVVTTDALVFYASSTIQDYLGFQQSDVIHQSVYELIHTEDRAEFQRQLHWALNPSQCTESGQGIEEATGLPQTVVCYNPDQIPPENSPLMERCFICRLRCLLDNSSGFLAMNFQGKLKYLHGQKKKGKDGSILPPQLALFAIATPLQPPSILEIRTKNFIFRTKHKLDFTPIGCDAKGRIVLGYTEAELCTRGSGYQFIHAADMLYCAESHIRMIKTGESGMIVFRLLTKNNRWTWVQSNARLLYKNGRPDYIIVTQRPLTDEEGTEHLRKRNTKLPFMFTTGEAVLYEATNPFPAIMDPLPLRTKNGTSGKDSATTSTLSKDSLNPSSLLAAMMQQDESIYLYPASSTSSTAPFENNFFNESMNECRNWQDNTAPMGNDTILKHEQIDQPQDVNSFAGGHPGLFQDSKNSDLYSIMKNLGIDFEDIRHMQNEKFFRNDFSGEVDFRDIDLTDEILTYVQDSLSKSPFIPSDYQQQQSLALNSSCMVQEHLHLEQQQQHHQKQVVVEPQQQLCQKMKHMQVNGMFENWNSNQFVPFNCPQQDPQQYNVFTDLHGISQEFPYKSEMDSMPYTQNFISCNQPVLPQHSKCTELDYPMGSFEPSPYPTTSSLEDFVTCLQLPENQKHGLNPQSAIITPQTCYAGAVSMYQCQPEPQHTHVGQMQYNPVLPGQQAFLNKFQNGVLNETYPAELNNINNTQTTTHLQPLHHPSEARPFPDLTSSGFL
Type: cell-based
Text: Our previous studies have shown that the activity of NAP-6 (2) and 10-Cl-BBQ (3) required the activation of the AhR pathway and the induction of CYP1 family of phase I metabolising enzymes ([Gilbert et al., 2020]; [Baker et al., 2021a]). Therefore, we sought to determine the activation of AhR using a stable AhR reporter assay in HT29-Lucia™ AhR cells, in the presence of each BBQ analogue (Figure 3). Activation of the AhR was indicated by enhanced luminescence caused by the translocation of the AhR to the nucleus of the cell and interaction with the xenobiotic response elements imbedded in the luciferase gene.
Stock solutions were prepared as follows and stored as 20 mM DMSO solutions at −20 °C. All cell lines were cultured in a humidified atmosphere 5% CO2 at 37 °C. The cancer cell lines were maintained in Dulbecco’s modified Eagle’s medium (DMEM) (Trace Biosciences, Australia) supplemented with 10% foetal bovine serum (FBS), 10 mM sodium bicarbonate, penicillin (100 IU/mL), streptomycin (100 μg/mL), and glutamine (4 mM). The non-cancer MCF10A cell line was cultured in DMEM:F12 (1:1) cell culture media, 5% heat inactivated horse serum, supplemented with penicillin (50 IU/mL), streptomycin (50 μg/mL), 20 mM Hepes, L-glutamine (2 mM), epidermal growth factor (20 ng/mL), hydrocortisone (500 ng/mL), cholera toxin (100 ng/mL), and insulin (10 μg/mL). The AhR reporter cell line HT29-Lucia™ (Invivogen, United States) was maintained in DMEM supplemented with 10% heat inactivated FBS, L-glutamine (2 mM), penicillin (100 IU/mL), streptomycin (100 μg/mL), 100 μg/mL Normocin™, and 100 μg/mL of the selective antibiotic Zeocin™. All cell lines were purchased from the American Type Culture Collection (ATCC), except for A2780 and A431 which were from the European Collection of Authenticated Cell Cultures (ECACC), and SJ-G2 cell line which was from Dr Mary Danks, St Jude Children’s Research hospital, Memphis, TN.
The activity of the AhR signalling pathway was measured using the stably transfected AhR cell line, HT29-Lucia™ (Invivogen, United States). This cell line stably expresses the secreted Lucia luciferase reporter gene under the control of a minimal promoter coupled with the human CYP1A1 gene entire regulatory sequence, containing six DREs. The Lucia luciferase reporter protein is readily measurable in the cell culture supernatant using QUANTI-Luc™. For the determination of AhR activity, 4 × 10^4 cells in 180 μL was plated into each well of a 96 well micro-titre plate in the absence of antibiotics and allowed to culture for 24 h prior to the addition of test compounds in a volume of 20 μL. At the indicated time, 20 μL of cell supernatant was transferred to a white luminometer plate and 50 µL of QUANTI-Luc was added immediately prior to reading the luminescence using a GloMax Explorer Luminescence Plate Reader. The promoter activity was conducted in duplicate and the values expressed as fold-change relative to DMSO (0.1%) treated cells. The AhR ligand, FICZ (6-formylindolo[3,2-b]carbazole) and AhR inhibitor CH223191 were included for study as positive and negative controls, respectively. […] Results are presented as the mean ± standard error of the mean (SEM) of analysis conducted in duplicate and repeated on three separate occasions.

Compound | AhR activation, Fold Reporter Induction [fold]
O=c1c2cccc3cccc(c32)c2nc3cc(Cl)ccc3n12 [Compound 4, 11-Chloro-7H-benzo[de]benzo[4,5]imidazo[2,1-a]isoquinolin-7-one] | 2.9
O=c1c2ccccc2cc2[nH]c3ccccc3n12 [Compound 12, Benzo[4,5]imidazo[1,2-b]isoquinolin-11(5H)-one] | 1.2
10-Methyl-7H-benzo[de]benzo[4,5]imidazo[2,1-a]isoquinolin-7-one (7a) and 11-methyl-7H-benzo[de]benzo[4,5]imidazo[2,1-a]isoquinolin-7-one (7b) [Compound 7] | 2.8
3-Chloro-7H-benzo[de]benzo[4,5]imidazo[2,1-a]isoquinolin-7-one (10a) and 4-chloro-7H-benzo[de]benzo[4,5]imidazo[2,1-a]isoquinolin-7-one (10b) [Compound 10] | 2.7
O=c1c2cccc3cccc(c32)c2nc3ccc(Cl)cc3n12 [Compound 3, 10-Chloro-7H-benzo[de]benzo[4,5]imidazo[2,1-a]isoquinolin-7-one] | 2.7
O=c1c2cccc3cccc(c32)c2nc3ccccc3n12 [Compound 5, 7H-Benzo[de]benzo[4,5]imidazo[2,1-a]isoquinolin-7-one] | 3.1
9-Methyl-7H-benzo[de]benzo[4,5]imidazo[2,1-a]isoquinolin-7-one (8a) and 12-methyl-7H-benzo[de]benzo[4,5]imidazo[2,1-a]isoquinolin-7-one (8b) [Compound 8] | 2.5
3-Nitro-7H-benzo[de]benzo[4,5]imidazo[2,1-a]isoquinolin-7-one (11a) and 4-nitro-7H-benzo[de]benzo[4,5]imidazo[2,1-a]isoquinolin-7-one (11b) [Compound 11] | 10.2
7-Oxo-7H-benzo[de]benzo[4,5]imidazo[2,1-a]isoquinoline-10-carbonitrile (9a) and 7-oxo-7H-benzo[de]benzo[4,5]imidazo[2,1-a]isoquinoline-11-carbonitrile (9b) [Compound 9] | 2.5
Nc1ccccc1N1C(=O)c2cccc3cccc(c23)C1=O [Compound 2, 2-(2-aminophenyl)-1H-benzo[de]isoquinoline-1,3(2H)-dione] | 1.8
O=c1c2cccc3cccc(c4n1Cc1ccccc1N=4)c32 [Compound 13, 7H,9H-benzo[4,5]isoquinolino[1,2-b]quinazolin-7-one] | 1.8
O=C(O)c1ccc2c3c1cccc3c(=O)n1c3ccccc3nc21 [Compound 14, reference compound] | 1.5

From article PMC11224556, “Next-generation of BBQ analogues that selectively target breast cancer” (Frontiers in Chemistry, 2024)
